Target: T1, glucocorticoid receptor (Homo sapiens, UniProt P04150)
T1 sequence (P04150 1-777): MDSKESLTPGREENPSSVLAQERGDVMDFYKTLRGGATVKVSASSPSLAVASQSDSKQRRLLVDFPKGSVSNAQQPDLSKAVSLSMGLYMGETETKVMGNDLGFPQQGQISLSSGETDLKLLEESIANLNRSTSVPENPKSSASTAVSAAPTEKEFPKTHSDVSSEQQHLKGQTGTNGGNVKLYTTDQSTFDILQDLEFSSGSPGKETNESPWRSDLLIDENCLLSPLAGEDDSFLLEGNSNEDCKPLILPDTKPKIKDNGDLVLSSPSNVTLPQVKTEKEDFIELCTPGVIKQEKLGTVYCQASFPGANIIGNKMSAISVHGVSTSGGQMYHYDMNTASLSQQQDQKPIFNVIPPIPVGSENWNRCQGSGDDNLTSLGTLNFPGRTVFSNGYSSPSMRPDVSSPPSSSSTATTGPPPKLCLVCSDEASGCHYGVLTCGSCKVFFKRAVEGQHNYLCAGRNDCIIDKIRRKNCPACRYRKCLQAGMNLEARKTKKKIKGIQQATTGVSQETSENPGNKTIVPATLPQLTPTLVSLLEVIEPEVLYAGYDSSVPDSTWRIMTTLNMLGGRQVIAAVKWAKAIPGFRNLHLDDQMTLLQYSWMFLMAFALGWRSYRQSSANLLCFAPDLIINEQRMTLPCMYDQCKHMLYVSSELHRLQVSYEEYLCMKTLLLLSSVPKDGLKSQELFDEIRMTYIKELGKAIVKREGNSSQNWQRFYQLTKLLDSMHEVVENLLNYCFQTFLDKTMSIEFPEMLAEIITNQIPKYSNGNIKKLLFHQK
Assay: Western Blot analysis of glucocorticoid receptor translocation into the nucleus in U937 cells
Details: nuclear extract, GR band at approximately 94 kDa by densitometry, control = 100, proportional to increase in GR translocation into the nucleus

% Change in Band Density: 183 ± 12%
SMILES: OCc1cc(C(O)CNCCCCCCOCCCCc2ccccc2)ccc1O (stereo not shown) [Salmeterol]

Source: patent US20030026766A1 (priority 2000, published 2003)
